Experimental data: US20240124503A1, “HETEROAROMATIC PHOSPHONIUM SALTS AND THEIR USE TREATING CANCER” (FLORATEK PHARMA S.A., priority 2021, published 2024)

What was measured:
colon PDX = assay: Cell viability, colon PDX (panel statement); format: cell-based; conditions: text summary of Table 7; read-out: IC50, growth of colon PDX
Description: PDX-derived cell cultures were obtained from tumors explanted from mice and isolated by mechanical and enzymatic dissociation. […] Cells were harvested and seeded in 96-wells plates at a density of 1.25 to 5×10^3 cells/well for cytotoxicity assays. Cells were incubated 48 h at 37° C. prior to addition of test molecules and vehicle (DMSO, 0.1%) at desired final concentrations. Cell viability was assessed before drugs' addition (To) and 5 days after test molecules addition by measuring ATP cell content using CellTiter-Glo® Luminescent Cell Viability Assay (Promega) according to the manufacturer's instructions. Luciferase activity was measured on a luminometer (PerkinElmer® EnVision™). Each concentration of compounds was tested in triplicate.
Viability was calculated as a percentage of ATP value compared to vehicle treated controls.
For PDX primary cell cultures, the tumour tissue was washed with PBS containing antibiotic-antimycotic and non-tumour tissue and necrotic tumour tissues were separated. The tumour tissue was transferred to a new dish and cut into 1˜2 mm^3 fragments, resuspended in RPMI-1640 medium and centrifuged at 1,200 rpm for 6 min at room temperature. The pelleted material was resuspended with 15 mL of Tumour Cell Digestion Solution and incubated at 37° C. for 1 hour with agitation. […]

SK-N-AS = assay: Cell viability assay, SK-N-AS; format: cell-based; conditions: Homo sapiens; brain carcinoma cell line SK-N-AS
Description: Antitumor activity of the compounds and doxorubicin as a positive control was assessed by using the CellTiter-Blue Cell Viability Assay (Promega, #G8082) or CellTiter-Glow® Luminescent Cell Viability assay (Promega #G7572) according to the manufacturer's instructions. The compounds were tested at 5 or 6 concentrations in half-log increments (highest concentration 30 μM or 100 μM) in duplicate or triplicate well conditions.
Tumor cells were grown at 37° C. in a humidified atmosphere with 5% CO2 in RPMI 1640 or DMEM medium, supplemented with 10% (v/v) fetal calf serum and 50 μg/ml gentamicin for up to 20 passages, and were passaged once or twice weekly. Cells were harvested using TrypLE or PBS buffer containing 1 mM EDTA, and the percentage of viable cells was determined using a CASY Model TI cell counter (OMNI Life Science). Cells were harvested from exponential phase cultures, counted and plated in 96 well flat-bottom microtiter plates at a cell density depending on the cell line's growth rate (4,000-20,000 cells/well depending on the cell line's growth rate, up to 60,000 for hematological cancer cell lines) in RPMI 1640 or DMEM medium supplemented with 10% (v/v) fetal calf serum and 50 μg/ml gentamicin (140 μl/well). […] Viability of cells was quantified by the CellTiter-Blue® cell viability assay (Promega G8081) or CellTiter-Glow® Luminescent Cell Viability assay (Promega #G7572). […]

TRKA = target: T1, TRKA (Homo sapiens, UniProt P04629); assay: KINOMEscan competition binding, TRKA
T1 construct: purchased Eurofins (KINOMEscan); host or cells: E. coli BL21-derived host (T7 phage) or HEK-293
T1 sequence (P04629 33-796): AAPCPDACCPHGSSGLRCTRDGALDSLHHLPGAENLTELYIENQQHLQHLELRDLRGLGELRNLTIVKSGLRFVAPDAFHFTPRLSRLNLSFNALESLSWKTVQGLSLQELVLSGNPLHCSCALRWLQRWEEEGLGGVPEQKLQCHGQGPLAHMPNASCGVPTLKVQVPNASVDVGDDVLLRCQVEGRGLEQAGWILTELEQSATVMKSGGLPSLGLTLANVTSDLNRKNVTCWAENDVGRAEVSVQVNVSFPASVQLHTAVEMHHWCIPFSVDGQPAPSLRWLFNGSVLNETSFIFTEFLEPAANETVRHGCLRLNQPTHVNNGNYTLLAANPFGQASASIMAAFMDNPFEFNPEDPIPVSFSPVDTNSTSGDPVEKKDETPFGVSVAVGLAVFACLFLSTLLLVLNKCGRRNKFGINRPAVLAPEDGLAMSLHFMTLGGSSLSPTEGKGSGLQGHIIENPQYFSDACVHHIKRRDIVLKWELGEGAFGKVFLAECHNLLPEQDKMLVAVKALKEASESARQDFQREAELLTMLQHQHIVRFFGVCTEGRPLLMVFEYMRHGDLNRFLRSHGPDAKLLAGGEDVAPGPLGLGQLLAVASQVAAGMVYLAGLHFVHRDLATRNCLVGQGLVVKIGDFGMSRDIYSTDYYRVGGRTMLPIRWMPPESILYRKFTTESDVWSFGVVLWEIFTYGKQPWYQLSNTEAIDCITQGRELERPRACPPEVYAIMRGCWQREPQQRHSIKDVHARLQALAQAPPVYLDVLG
Description: Selected compounds were screened for kinase inhibition using the KINOMEscan™ assay (Eurofins) which is based on a competition binding assay that quantitatively measures the ability of a compound to compete with an immobilized, active-site directed ligand. The assay was performed by combining three components: DNA-tagged kinase; immobilized ligand; and the test compound. The ability of the test compound to compete with the immobilized ligand was measured via quantitative PCR of the DNA tag.
Kinase-tagged T7 phage strains were prepared in an E. coli host derived from the BL21 strain. E. coli were grown to log-phase and infected with T7 phage and incubated with shaking at 32° C. until lysis. The lysates were centrifuged and filtered to remove cell debris. The remaining kinases were produced in HEK-293 cells and subsequently tagged with DNA for qPCR detection. Streptavidin-coated magnetic beads were treated with biotinylated small molecule ligands for 30 minutes at room temperature to generate affinity resins for kinase assays. […] Kds were determined using an 11-point 3-fold compound dilution series with three DMSO control points. […] The kinase concentration in the eluates was measured by qPCR. […]
Binding constants (Kds) were calculated with a standard dose-response curve using the Hill equation: Response=Background+[Signal−Background/1+(Kd^Hill Slope/Dose^Hill Slope)] […]

Work on `COc1c(O)ccc2c(=O)c(O)c(-c3ccc(CCCC[P+](c4ccccc4)(c4ccccc4)c4ccccc4)cc3)oc12` [SND190, (4-(4-(3,7-Dihydroxy-8-methoxy-4-oxo-4H1-chromen-2-yl)phenyl)butyl)triphenylphosphonium bromide] yielded an IC50 (colon PDX) of under 20 µM, an IC50 (SK-N-AS) of 3 µM and a Kd (TRKA) of 2.3 µM.
